Measured values taken from patent US20030220376A1, “Methods for treating carbonic anhydrase mediated disorders” (Pharmacia Corporation, priority 2001, published 2003).
Several values for one entry are separate records, joined by “and”; a condition that tells them apart may be missing. Identical values can stand only once.

target: T1, human carbonic anhydrase II (Homo sapiens, UniProt P00918); assay: Carbonic anhydrase II inhibition assay (p-nitrophenol acetate, absorbance at 405 nm); assay type: biochemical; conditions: Table 2; overall value of N determinations; read-out: CA Assay IC50 (μM) and concentration of inhibitor added
T1 construct: purchased Sigma C-6165
Method: Final concentrations of each inhibitor ranged from 1 picomolar to 1 micromolar. Control samples that included either no inhibitor or no enzyme were also performed.
The admixture of substrate and enzyme initiates the enzyme reaction. […] The inhibition at each inhibitor concentration was measured in triplicate. The IC50 value was then derived using the GraphPad Prism curve fitting software. […] The compound number listed in Table 2 and 3 corresponds with the same compound number detailed in Table 1.

Going from `O=C(c1ccc(-n2nc(C(F)(F)F)cc2-c2ccc(F)cc2)cc1)C(F)(F)F` [X, reference compound] to `CCCCOc1ccc(-c2cc(C(F)(F)F)nn2-c2ccc(S(N)(=O)=O)cc2)cc1` [Compound 2], the IC50 falls from greater than 100 µM to 0.04 µM.

`CS(=O)(=O)c1ccc(C2=C(c3ccccc3)C(=O)OC2)cc1` [VIII, Rofecoxib, reference compound] and `CS(=O)(=O)c1ccc(-n2nccc2-c2ccc(F)cc2)cc1` [IX, reference compound] cannot be ordered by IC50: greater than 100 µM for the first, greater than 100 µM for the second.

First: CC(=O)SCc1cc(-c2ccc(Cl)cc2)n(-c2ccc(S(N)(=O)=O)cc2)n1 [Compound 4]
Second: NS(=O)(=O)c1ccc(-n2nc(-c3ccccc3)cc2-c2ccccc2)cc1 [Compound 3]
The IC50 of the first is 2.2-fold higher: 0.09 µM for the first, 0.04 µM for the second.

In the case of `C=C1N[C@@H]2[C@@H](CS[C@@H]2CCCCC(=O)NCCOCCOCCNC(=O)CSCc2cc(-c3ccc(Cl)cc3)n(-c3ccc(S(N)(=O)=O)cc3)n2)N1` [Compound 6], the IC50 is reported as 0.18 µM.

same assay, conditions: Table 2; single values of the N determinations; read-out: CA Assay IC50 (μM), individual determinations in parentheses

In the case of `CCCCOc1ccc(-c2cc(C(F)(F)F)nn2-c2ccc(S(N)(=O)=O)cc2)cc1` [Compound 2], the IC50 is reported as 0.03 µM and 0.04 µM.
`Cc1ccc(-c2cc(C(F)(F)F)n(-c3ccc(S(N)(=O)=O)cc3)n2)cc1` [Compound 1] was tested, and the IC50 was 0.015 µM and 0.021 µM and 0.004 µM.

same assay, conditions: Table 3; mean; read-out: Mean IC50

In order of falling IC50:
1. COc1ccc(-c2cc(C(=O)O)nn2-c2ccc(S(N)(=O)=O)cc2)cc1 [Compound 42]  4.9 µM
2. C#CCN(CC#C)S(=O)(=O)c1ccc(-n2nc(C(N)=O)c3c2-c2nc(N)ncc2CC3)cc1 [Compound 25]  2.91 µM
3. NS(=O)(=O)c1ccc(-n2nc(C(=O)O)c3c2-c2cn[nH]c2CC3)cc1 [Compound 22]  1.24 µM
4. NC(=O)c1nn(-c2ccc(S(N)(=O)=O)cc2)c2c1CCc1cn(CCO)nc1-2 [Compound 21]  1.22 µM
5. NS(=O)(=O)c1ccc(-n2nc(C(=O)O)cc2-c2ccccc2)cc1 [Compound 37]  0.599 µM
6. NC(=O)c1cc(-c2cccnc2)n(-c2ccc(S(N)(=O)=O)cc2)n1 [Compound 28]  0.523 µM
7. NC(=O)c1nn(-c2ccc(S(N)(=O)=O)cc2)c2c1C[S+]([O-])c1ccccc1-2 (stereo not shown) [Compound 12]  0.465 µM
8. COCC(=O)Nc1ccc2c(c1)-c1c(c(C(N)=O)nn1-c1ccc(S(N)(=O)=O)cc1)CC2 [Compound 20]  0.435 µM
9. NC(=O)c1cc(-c2ccncc2)n(-c2ccc(S(N)(=O)=O)cc2)n1 [Compound 27]  0.418 µM
10. CNC(=O)c1nn(-c2ccc(S(N)(=O)=O)cc2)cc1-c1ccccc1 [Compound 58]  0.389 µM
11. CNC(=O)c1cc(-c2ccc(OC)cc2)n(-c2ccc(S(N)(=O)=O)cc2)n1 [Compound 41]  0.334 µM
12. COc1ccc(-c2cc(C(N)=O)nn2-c2ccc(S(N)(=O)=O)cc2)cc1 [Compound 39]  0.258 µM
13. NS(=O)(=O)c1ccc(-n2ncc3c2-c2ccncc2CC3)cc1 [Compound 18]  0.251 µM
14. COC(=O)c1cc(-c2ccc(OC)cc2)n(-c2ccc(S(N)(=O)=O)cc2)n1 [Compound 31]  0.239 µM
15. NC(=O)c1cc(-c2ccccc2)n(-c2ccc(S(N)(=O)=O)cc2)n1 [Compound 38]  0.21 µM
16. COc1ccc(-c2ccnn2-c2ccc(S(N)(=O)=O)cc2)cc1 [Compound 43]  0.203 µM
17. CCOc1cccc2c(C(N)=O)nn(-c3ccc(S(N)(=O)=O)cc3)c12 [Compound 23]  0.202 µM
18. NC(=O)c1nn(-c2ccc(S(N)(=O)=O)cc2)c2c1CCc1cnccc1-2 [Compound 8]  0.195 µM
19. COC(=O)c1cc(-c2ccccc2)n(-c2ccc(S(N)(=O)=O)cc2)n1 [Compound 32]  0.182 µM
20. CN(C)/C=N/c1cccc(-c2cc(C(N)=O)nn2-c2ccc(S(N)(=O)=O)cc2)c1 [Compound 17]  0.181 µM
21. NS(=O)(=O)c1ccc(-n2nc(C(F)(F)F)cc2C2CCNCC2)cc1 [Compound 57]  0.139 µM
22. NC(=O)c1cc(-c2ccccn2)n(-c2ccc(S(N)(=O)=O)cc2)n1 [Compound 29]  0.127 µM
23. NS(=O)(=O)c1ccc(-n2ncc(C(F)(F)F)c2-c2ccccc2)cc1 [Compound 56]  0.109 µM
24. NC(=O)c1nn(-c2ccc(S(N)(=O)=O)cc2)c2c1CNc1ccccc1-2 [Compound 14]  0.101 µM
25. NS(=O)(=O)c1ccc(-n2nc(C(F)(F)F)cc2O)cc1 [Compound 48]  0.0812 µM
26. NS(=O)(=O)c1ccc(-n2nc(C(F)(F)F)cc2O)cc1 [Compound 65]  0.0812 µM
27. NS(=O)(=O)c1ccc(-n2nc(C(=O)NCC(=O)O)cc2-c2ccc(Cl)cc2)cc1 [Compound 44]  0.08 µM
28. NC(=O)c1cc(-c2ccco2)n(-c2ccc(S(N)(=O)=O)cc2)n1 [Compound 26]  0.0794 µM
29. CNC(=O)c1nn(-c2ccc(S(N)(=O)=O)cc2)c2c1CCc1[nH]ncc1-2 [Compound 19]  0.0777 µM
30. CC1CCc2c(c(C(=O)O)nn2-c2ccc(S(N)(=O)=O)cc2)C1 (stereo not shown) [Compound 13]  0.07 µM
31. NS(=O)(=O)c1ccc(-n2nc(CO)cc2-c2ccc(O)cc2)cc1 [Compound 47]  0.0671 µM
32. NC(=O)c1nn(-c2ccc(S(N)(=O)=O)cc2)c2c1CCc1cnc(N)nc1-2 [Compound 24]  0.06 µM
33. COc1ccc2c(c1F)C[S+]([O-])c1c(C(F)(F)F)nn(-c3ccc(S(N)(=O)=O)cc3)c1-2 (stereo not shown) [Compound 46]  0.06 µM
34. COC(C)(C)Cc1cc(C(F)F)nn1-c1ccc(S(N)(=O)=O)cc1 [Compound 36]  0.0463 µM
35. NS(=O)(=O)c1ccc(-n2nc(C(F)(F)F)c3c2-c2ccccc2[S+]([O-])C3)cc1 (stereo not shown) [Compound 45]  0.0431 µM
36. NS(=O)(=O)c1ccc(-n2nc(C(F)(F)F)cc2-c2cccnc2)cc1 [Compound 33]  0.0386 µM
37. NC(=O)c1nn(-c2ccc(S(N)(=O)=O)cc2)c2c1CSCC2 [Compound 51]  0.0356 µM
38. CS(=O)(=O)Nc1cccc(-c2cc(C(N)=O)nn2-c2ccc(S(N)(=O)=O)cc2)c1 [Compound 16]  0.0338 µM
39. COC(=O)C1c2ccccc2-c2c1cnn2-c1ccc(S(N)(=O)=O)cc1 (stereo not shown) [Compound 9]  0.0334 µM
40. NC(=O)c1nn(-c2ccc(S(N)(=O)=O)cc2)c2c1CCC=C2 [Compound 30]  0.0219 µM
41. COC(C)Cc1cc(C(F)F)nn1-c1ccc(S(N)(=O)=O)cc1 (stereo not shown) [Compound 34]  0.0184 µM
42. C/C=C/c1cc(C(F)F)nn1-c1ccc(S(N)(=O)=O)cc1 [Compound 35]  0.018 µM
43. CC(C)Oc1cc(C(F)(F)F)nn1-c1ccc(S(N)(=O)=O)cc1 [Compound 50]  0.0171 µM
44. NS(=O)(=O)c1ccc(-n2nc(C(F)(F)F)cc2C(=O)C(=O)c2ccccc2)cc1 [Compound 53]  0.0105 µM
45. COc1cc(C(F)(F)F)nn1-c1ccc(S(N)(=O)=O)cc1 [Compound 49]  0.0087 µM
46. CCOC(=O)c1nn(-c2ccc(S(N)(=O)=O)cc2)c2c1CCC=C2 [Compound 15]  0.0056 µM
47. Cc1ccc(-c2cc(C(F)(F)F)n(-c3ccc(S(N)(=O)=O)cc3)n2)cc1 [Compound 63]  0.0035 µM

same assay, conditions: read-out: IC50 for inhibition of CA II activity

Going from `CS(=O)(=O)c1ccc(C2=C(c3ccccc3)C(=O)OC2)cc1` [VIII, Rofecoxib, reference compound] to `Cc1ccc(-c2cc(C(F)(F)F)n(-c3ccc(S(N)(=O)=O)cc3)n2)cc1` [Compound 1], the IC50 falls from greater than 100 µM to 0.01 µM. The second is the more potent here.
